According to patent US8178506B2, “Oligomeric compounds and compositions for use in modulation of small non-coding RNAs” (Regulus Therapeutics Inc., priority 2003, dated 2012):

System: ob/ob mice
Test: ob/ob mice: plasma parameters, food consumption, marker gene mRNA
Assay type: in vivo, mouse
Conditions: ob/ob mice, 25 mg/kg s.c. two times per week, 6 weeks
How it was run: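 Male C57Bl/6J ob/ob mice received oligomeric compound or control at 25 mg/kg s.c. twice weekly, for 4 weeks on a 10-15% fat diet or for 6 weeks on high-fat diet. Plasma glucose and insulin were measured at 0, 2 and 4 weeks; i.p. glucose/insulin tolerance tests were run; serum lipids, liver triglycerides and histology were assessed, with liver, BAT and WAT mRNA quantified by real-time PCR.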

## CTAGTGGTCCTAAACATTTCAC (chemistry not given here) [ISIS 327878, uniform 2′-MOE PS; targets mir-203]
  plasma glucose levels (fed): reduced beginning at approximately four weeks after the start of treatment
